The values below are quoted from earlier work in patent US20080152709A1, “CLONIDINE COMPOSITION AND METHOD OF USE” (DRUGTECH CORPORATION, priority 2006, published 2008).

For data set [1] the following is noted: administered orally.
For data set [2] the following is noted: oral administration of 0.3 mg.
Assay in data set [3]: not given
This is another data set of the same source.

The conditions of data set [4]: oral 0.075 mg twice daily for three days; third day.
The conditions of data set [5]: once daily oral 0.25 and 0.5 mg, sustained-release formulation.
Data set [6] relates to patients with morning hypertension. To be noted: once daily in the evening, added to pre-existing antihypertensive regimen.
Assay in data set [7]: not given
This is another data set of the same source.

Where [8] appears, read: single oral dose of 0.3 mg clonidine hydrochloride.
Setting [9] is: single oral dose of 0.3 mg, all subjects.

Counter-ions that a name gives are not always drawn. Like-named read-outs stand apart in the source and are kept apart here.

As for `Clc1cccc(Cl)c1N=C1NCCN1` [clonidine hydrochloride], under setting [8], the “mean maximum plasma concentration” value was 1.35 ng/mL and the “time of mean maximum concentration after administration” value is 1 h. Where the note is “single oral dose of 0.3 mg clonidine hydrochloride, 24 hours”, the “plasma concentration at 24 hours” value is reported as “below 0.5 ng/ml”. Also, under setting [9], the “salivary flow (dry mouth symptoms)” value is “marked reduction in salivary flow” and the sedation result was “markedly sedated”.
Consider `Clc1cccc(Cl)c1NC1=NCCN1` [clonidine, N-(2,6-dichlorophenyl)-4,5-dihydro-1H-imidazol-2-amine], for which the “absorption from the gastrointestinal tract” value in data set [1] is given as “almost completely absorbed”. Moreover, in data set [2], the “peak plasma clonidine concentration” value is 1.34 ng/mL. For the same molecule, the “peak clonidine concentration (Cmax)” value in data set [3] (single oral dose 0.075 mg) was 0.28 ng/mL; in data set [3] (single oral dose 0.15 mg) it was 0.61 ng/mL; in data set [3] (single oral dose 0.25 mg), 1.16 ng/mL. In addition, the “plasma concentration 24 hours after administration” value in data set [3] (single oral dose 0.075 mg) was 0.06 ng/mL; in data set [3] (single oral dose 0.15 mg) it was 0.07 ng/mL; in data set [3] (single oral dose 0.25 mg) it was 0.34 ng/mL. Also, the peak clonidine concentration in data set [4] is 0.39 ng/mL. For the same molecule, the 24-hour antihypertensive efficacy result in data set [5] was “Reduction in blood pressure was observed throughout the 24 hours”. In data set [6], the morning blood pressure entry was “effective in reducing morning blood pressure”. For the same molecule, the “effect on diastolic blood pressure” value in data set [7] (0.1 mg administered at 4 pm or 8 pm) was “not”; in data set [7] (0.1 mg administered at 6 am or 12 noon), “reduced diastolic blood pressure”.
